Experimental data as given in paper PMC8861095, “Neurotoxicological profile of the hallucinogenic compound 25I-NBOMe” (Scientific Reports, 2022).

How the values were obtained:
DNA = experiment: Alkaline comet assay on nuclei from frontal cortex and hippocampus; format: in vivo, rat; conditions: for DNA damage (tail moment): single and repeated (× 7) 0.3 mg/kg sc, 72 h after administration, vs control
Experimental: (§1) Animals received single or multiple (once per day for seven days) subcutaneous injections of 25I-NBOMe dissolved in 0.9% NaCl at a dose of 0.3 mg/kg/2 ml. The control group was treated with 0.9% NaCl solution in the same way. All procedures were performed 72 h after the last injection. The time point of 72 h was chosen due to the possible generation of neurotoxicity via oxidative stress caused by reactive oxygen species (ROS). Exceptionally, for initial 25I-NBOMe brain distribution studies, rats received the drug in the dose of 1 and 10 mg/kg and were sacrificed 15 min after the drug administration. The rat blood plasma and brain tissues were collected immediately after rats’ decapitation. LSD (0.05 mg/kg, ip) was given daily for 7 days in a volume of 1 ml/kg, while MDMA 5 mg/kg, ip was injected in a volume of 2 ml/kg every second day (overall 4 injections).
The alkaline comet assay was performed with the use of CometAssay® Reagent Kit for Single Cell Gel Electrophoresis Assay. At 72 h after the acute and chronic treatment with 25I-NBOMe (0.3 mg/kg, sc × 7 days), LSD (0.05 mg/kg, ip × 7 days) or MDMA (5 mg/kg, ip × 4 doses every second day) animals were sacrificed by decapitation and the frontal cortex (that consist of the sum of FC and mPFC) and hippocampus were dissected. After homogenization and several purification and centrifugation stages (as described previously in[17]), the nuclear suspension was obtained using a sucrose gradient (2.8 M/2.6 M, bottom to top). The nuclear fraction was mixed with low melting point agarose and transferred immediately onto CometSlides™. The following steps, including membrane lysis, DNA unwinding, alkaline electrophoresis, and staining (SYBR® Gold), were carried out according to Trevigen CometAssay® protocol. Stained sections were acquired and analyzed under a fluorescence microscope (Nikon Eclipse50i, Japan) equipped with a camera and NIS Elements software. The data was analyzed using OpenComet software v.1.3 (cometbio.org), a plugin of ImageJ program v.1.47 (NIH, Bethesda, MD, USA). DNA damage was presented as a tail moment. Tail moment incorporates a measure of both the smallest detectable size of migrating DNA (reflected by the comet tail length) and the number of damaged pieces (represented by the intensity of DNA in the tail).

[1] = 25I-NBOMe distribution in rat blood plasma and brain regions (LC–MS/MS, ESI ion trap); format: in vivo
Experimental: as §1
The presence of 25I-NBOMe in the rat brain regions and blood serum was analyzed with electrospray ion trap mass spectrometry (Amazon SL from Bruker Daltonics, Bremen, Germany). At 72 h after the last injection with 25I-NBOMe or 15 min after injection of single low and high (1 and 10 mg/kg) dose, animals were sacrificed by decapitation. Brains were removed and the frontal cortex, striatum, nucleus accumbens, and hippocampus were dissected. The blood samples were also collected after 25I-NBOMe injections. Tissue samples were homogenized in an ice-cold 0.1 M HClO4, and were centrifuged at 10,000×g for 10 min at 4 °C. Blood was incubated for 30 min and then centrifuged for 15 min, 3000 rpm at 4 °C. The collected blood serum and tissue supernatants were frozen at − 80 °C until the time of mass spectrometry analysis. The value pH of samples was about 2. To purify the samples, solid phase extraction (SPE) columns MacroSpin Columns Silica C18 (The Nest Group, Inc., Southborough, USA) were used. Initially, columns were activated with 100% methanol (MeOH) solution by double centrifugation at 110×g for 1 min. Next, to remove MeOH, 2% acetonitrile (ACN) with 0.1% HCOOH was used. Subsequently, the columns were washed twice with the blood and tissue samples. To remove adenosine-5'-diphosphate (ADP) that has the same precursor ion as 25I-NBOMe the columns were washed twice with 2% ACN. Finally, to wash out 25I-NBOMe, the column was washed twice with 80% ACN with 0.1% HCOOH. Samples were left to dry in SpeedVac Vacuum Concentrator (Labconco, Kansas City, USA) overnight. The following day, samples were dissolved in 10% ACN with 0.1% HCOOH and injected to the LC–MS/MS system. The nanoLC-MS/MS analysis used to separate compounds was performed using the Ultimate 3000 nanocapillary chromatography system (Polygen, Gliwice, Poland). The separations were performed using a PepMap column (15 cm long, 75 μm ID, C18, 3 μm particle size, 100 Å pore size, Thermo-Scientific). The gradient was formed using 0.1% HCOOH in H2O (solvent A) and 0.1% HCOOH in ACN (solvent B), at a flow rate of 300 nl/min. The system was controlled by the Hystar software (Bruker Daltonics). A gradient was produced from 5 to 80% B in 100 min, then kept at 90% of phase B for 10 min. The mass spectrometry detection was performed in positive ion mode by electrospray ion trap mass spectrometry (Amazon SL from Bruker Daltonics, Bremen, Germany). The retention time of 25I-NBOMe was about 30.3 min. The acquired mass spectra were analyzed using the Bruker Data Analysis v. 4.0 software (Bruker Daltonics). The data presented in tables are calculated as intensity per 1 mg of wet tissue or 1 ml of blood serum, while mass spectra represent the real intensity of 25I-NBOMe-precursor ion from tissue samples with different mass.

SMILES: COc1cc(CCNCc2ccccc2OC)c(OC)cc1I [25I-NBOMe, 4-Iodo-2,5-dimethoxy-N-(2-methoxybenzyl)phenethylamine]
- DNA damage (tail moment) (DNA; frontal cortex): produced DNA damage
- DNA damage after multiple injections compared with a single dose (DNA; hippocampus, 0.3 mg/kg sc × 7 vs single, 72 h): stronger than after a single dose
- DNA damage (tail moment) (DNA; hippocampus): produced DNA damage
- Accumulation in brain tissue after repeated administration ([1]; 0.3 mg/kg × 7 vs single dose, 72 h): caused drug accumulation in the brain tissue
- Intensity of the 25I-NBOMe precursor ion (~ 428 m/z) ([1]; blood plasma, single 1 mg/kg, 15 min after injection, per 1 ml of blood serum, one sample preparation): 9.24 × 10^4 a.u.
- Intensity of the 25I-NBOMe precursor ion (~ 428 m/z) ([1]; blood plasma, single 10 mg/kg, 15 min after injection, per 1 ml of blood serum, one sample preparation): 5.44 × 10^5 a.u.
- Crossing of the blood–brain barrier (BBB) ([1]; detected in blood serum and several brain regions 15 min after injection): easily crosses the blood–brain barrier (BBB)
- Intensity of the 25I-NBOMe precursor ion (~ 428 m/z) ([1]; frontal cortex, chronic 0.3 mg/kg × 7 sc, 72 h after last injection, per 1 mg of wet tissue): 2.93 × 10^4 a.u.
- Intensity of the 25I-NBOMe precursor ion (~ 428 m/z) ([1]; frontal cortex, single 0.3 mg/kg sc, 72 h after injection, per 1 mg of wet tissue): 2.25 × 10^3 a.u.
- Intensity of the 25I-NBOMe precursor ion (~ 428 m/z) ([1]; frontal cortex, single 1 mg/kg, 15 min after injection, per 1 mg of wet tissue): 2.94 × 10^4 a.u.
- Intensity of the 25I-NBOMe precursor ion (~ 428 m/z) ([1]; frontal cortex, single 10 mg/kg, 15 min after injection, per 1 mg of wet tissue): 4.36 × 10^5 a.u.
- Intensity of the 25I-NBOMe precursor ion (~ 428 m/z) ([1]; hippocampus, chronic 0.3 mg/kg × 7 sc, 72 h after last injection, per 1 mg of wet tissue): 1.72 × 10^4 a.u.
- Intensity of the 25I-NBOMe precursor ion (~ 428 m/z) ([1]; hippocampus, single 0.3 mg/kg sc, 72 h after injection, per 1 mg of wet tissue): 6.89 × 10^3 a.u.
- Intensity of the 25I-NBOMe precursor ion (~ 428 m/z) ([1]; hippocampus, single 1 mg/kg, 15 min after injection, per 1 mg of wet tissue): 1.60 × 10^4 a.u.
- Intensity of the 25I-NBOMe precursor ion (~ 428 m/z) ([1]; hippocampus, single 10 mg/kg, 15 min after injection, per 1 mg of wet tissue): 2.71 × 10^5 a.u.
- Intensity of the 25I-NBOMe precursor ion (~ 428 m/z) ([1]; nucleus accumbens, chronic 0.3 mg/kg × 7 sc, 72 h after last injection, per 1 mg of wet tissue): 9.00 × 10^3 a.u.
- Intensity of the 25I-NBOMe precursor ion (~ 428 m/z) ([1]; nucleus accumbens, single 0.3 mg/kg sc, 72 h after injection, per 1 mg of wet tissue): 3.85 × 10^3 a.u.
- Intensity of the 25I-NBOMe precursor ion (~ 428 m/z) ([1]; nucleus accumbens, single 1 mg/kg, 15 min after injection, per 1 mg of wet tissue): 2.32 × 10^7 a.u.
- Intensity of the 25I-NBOMe precursor ion (~ 428 m/z) ([1]; nucleus accumbens, single 10 mg/kg, 15 min after injection, per 1 mg of wet tissue): 7.15 × 10^7 a.u.
- Intensity of the 25I-NBOMe precursor ion (~ 428 m/z) ([1]; striatum, chronic 0.3 mg/kg × 7 sc, 72 h after last injection, per 1 mg of wet tissue): 2.12 × 10^3 a.u.
- Intensity of the 25I-NBOMe precursor ion (~ 428 m/z) ([1]; striatum, single 0.3 mg/kg sc, 72 h after injection, per 1 mg of wet tissue): 1.61 × 10^3 a.u.
- Intensity of the 25I-NBOMe precursor ion (~ 428 m/z) ([1]; striatum, single 1 mg/kg, 15 min after injection, per 1 mg of wet tissue): 5.97 × 10^4 a.u.
- Intensity of the 25I-NBOMe precursor ion (~ 428 m/z) ([1]; striatum, single 10 mg/kg, 15 min after injection, per 1 mg of wet tissue): 6.95 × 10^5 a.u.
